The results in this text go back to publication PMC11418391, “Benzenesulfonohydrazide-tethered non-fused and fused heterocycles as potential anti-mycobacterial agents targeting enoyl acyl carrier protein reductase (InhA) with antibiofilm activity” (RSC Advances, 2024).

This test concerns the target Enoyl acyl carrier protein (ACP) reductase (InhA) (Mycobacterium tuberculosis, UniProt P9WGR1). In words: colorimetric InhA assay, NADH oxidation at […] nm with 2-trans-octanoyl-CoA. Type of test: biochemical.

As usually defined, the IC50 is the concentration at which inhibition is half-maximal.

Enoyl acyl carrier protein (ACP) reductase (InhA), sequence (P9WGR1 whole entry, looked up): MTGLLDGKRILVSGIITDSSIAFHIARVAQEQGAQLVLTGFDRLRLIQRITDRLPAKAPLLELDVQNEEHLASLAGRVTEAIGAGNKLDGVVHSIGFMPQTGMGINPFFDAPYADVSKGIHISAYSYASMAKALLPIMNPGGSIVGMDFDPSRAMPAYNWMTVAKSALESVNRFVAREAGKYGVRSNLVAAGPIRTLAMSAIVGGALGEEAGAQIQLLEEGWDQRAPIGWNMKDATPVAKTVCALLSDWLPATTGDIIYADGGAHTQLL

`C/C(=N\NS(=O)(=O)c1ccc(C)cc1)c1c(O)c2ccccc2oc1=O` [compound 3] showed an IC50 of 1620 ± 690 nM.
The molecule `CC(=NNS(=O)(=O)c1ccc(C)cc1)c1ccccn1` [compound 7] had an IC50 of 910 ± 30 nM.
